Assay [1] concerns the target human Adenosine A2b receptor (Homo sapiens (Human), UniProt P29275). Put plainly: Adenosine receptor TR-FRET binding assay (A2b). Conditions: TR-FRET, inhibition of binding of 30 nM CA200645, CHO cell membranes. On the procedure:
(§1) Biological Example 1—Adenosine Receptor Time-Resolved Fluorescence Resonance Energy Transfer (TRFRET) Binding Assay
(§2) All FRET binding experiments were conducted at room temperature in white 384-well plates, in assay binding buffer containing 1×LabMed (Cisbio, France), 100 μg/mL saponin, 1% DMSO and 0.02% pluronic acid. Binding of the fluorescently labelled Adenosine receptor antagonist XAC (CA200645, FRET acceptor) to terbium-labelled A1, A2a, A2b and A3 adenosine receptors (FRET donors) was detected by time-resolved FRET due to the close proximity of the donor and acceptor in a binding event. To investigate the ability of unlabelled test compounds to bind to Adenosine A1, A2a, A2b and A3 receptors, dose response curves were constructed that determined the ability of a range of concentrations to inhibit the binding of 30 nM CA200645 to the A2b receptor and 100 nM CA200645 to the A1, A2a, and A3 receptor.
(§3) Serial dilution (1:3 dilutions) of test compounds in neat DMSO and transfer of a 400 nL sample of test compound into the assay plate was carried out using the Mosquito (TTP Labtech, UK). The compound samples were incubated for 2 hours at room temperature with a fixed concentration of CA200645 defined for each receptor (see above) and CHO cell membranes containing the human Adenosine A1 (0.5 μg/well), A2a (0.3 μg/well), A2b (1 μg/well) or A3 (1 μg/well) receptor in 40 μL of assay buffer. Total and non-specific binding of CA200645 was determined in the absence and presence of 10 μM XAC, respectively. Following 2 hours incubation, the level of CA200645 binding was detected on a Pherastar FSX (BMG Labtech, Germany) using standard TR-FRET settings. The terbium donor was excited with three laser flashes at a wavelength of 337 nm, and donor and acceptor emission was detected at 620 nm and 665 nm wavelengths, respectively. FRET ratios were obtained by multiplying the acceptor/donor ratio value by 10,000. Specific binding was determined by subtracting the non-specific binding FRET ratio from the total binding FRET ratio. Compound IC50 curves were analysed using GraphPad Prism 7.0 (GraphPad, USA) and Ki affinity values were determined from the obtained IC50 values using the method of Cheng and Prusoff.

Assay [2] addresses human Adenosine A3 receptor (Homo sapiens (Human), UniProt P0DMS8). Briefly: Adenosine receptor TR-FRET binding assay (A3). Conditions: inhibition of binding of 100 nM CA200645, CHO cell membranes. Here is the method:
as §1, §2, §3
(In general: In TR-FRET formats the signal depends on donor and acceptor labels being close together.)

The target of assay [3] is human Adenosine A2a receptor (Homo sapiens (Human), UniProt P29274). Put plainly: Adenosine receptor TR-FRET binding assay (A2a). The settings on record: inhibition of binding of 100 nM CA200645, CHO cell membranes. On the procedure:
as §1, §2, §3

Assay [4] concerns the target human Adenosine A1 receptor (Homo sapiens (Human), UniProt P30542). Briefly: Adenosine receptor TR-FRET binding assay (A1). Conditions: inhibition of binding of 100 nM CA200645, CHO cell membranes. On the procedure: as §1, §2, §3

Chain of human Adenosine A3 receptor (P0DMS8 whole entry): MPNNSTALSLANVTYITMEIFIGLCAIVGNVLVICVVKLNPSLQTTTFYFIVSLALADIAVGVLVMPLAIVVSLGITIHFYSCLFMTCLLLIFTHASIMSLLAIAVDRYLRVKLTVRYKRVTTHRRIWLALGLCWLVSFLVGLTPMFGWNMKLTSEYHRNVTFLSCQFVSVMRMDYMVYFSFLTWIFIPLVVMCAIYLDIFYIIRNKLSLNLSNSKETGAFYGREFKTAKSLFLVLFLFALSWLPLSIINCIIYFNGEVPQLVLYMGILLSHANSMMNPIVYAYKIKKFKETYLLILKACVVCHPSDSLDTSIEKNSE
Chain of human Adenosine A2a receptor (P29274 whole entry): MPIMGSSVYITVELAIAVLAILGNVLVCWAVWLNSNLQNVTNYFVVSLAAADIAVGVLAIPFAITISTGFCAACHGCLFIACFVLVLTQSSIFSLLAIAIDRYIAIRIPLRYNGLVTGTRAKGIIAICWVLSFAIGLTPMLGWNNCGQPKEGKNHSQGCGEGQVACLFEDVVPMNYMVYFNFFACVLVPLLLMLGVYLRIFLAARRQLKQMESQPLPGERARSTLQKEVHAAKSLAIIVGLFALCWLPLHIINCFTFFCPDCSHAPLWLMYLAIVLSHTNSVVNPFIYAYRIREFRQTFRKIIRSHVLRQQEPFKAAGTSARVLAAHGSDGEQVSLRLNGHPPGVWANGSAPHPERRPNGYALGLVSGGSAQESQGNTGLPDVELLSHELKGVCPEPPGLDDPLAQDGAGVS
Chain of human Adenosine A1 receptor (P30542 whole entry): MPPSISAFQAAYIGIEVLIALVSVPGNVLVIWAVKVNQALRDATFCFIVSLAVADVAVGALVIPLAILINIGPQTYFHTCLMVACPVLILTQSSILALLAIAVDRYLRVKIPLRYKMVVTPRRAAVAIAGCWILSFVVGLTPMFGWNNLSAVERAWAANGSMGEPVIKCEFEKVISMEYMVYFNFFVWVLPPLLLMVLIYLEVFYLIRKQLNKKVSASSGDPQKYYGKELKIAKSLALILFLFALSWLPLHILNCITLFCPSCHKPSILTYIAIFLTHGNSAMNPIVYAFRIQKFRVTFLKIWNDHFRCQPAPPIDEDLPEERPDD
Chain of human Adenosine A2b receptor (P29275 whole entry): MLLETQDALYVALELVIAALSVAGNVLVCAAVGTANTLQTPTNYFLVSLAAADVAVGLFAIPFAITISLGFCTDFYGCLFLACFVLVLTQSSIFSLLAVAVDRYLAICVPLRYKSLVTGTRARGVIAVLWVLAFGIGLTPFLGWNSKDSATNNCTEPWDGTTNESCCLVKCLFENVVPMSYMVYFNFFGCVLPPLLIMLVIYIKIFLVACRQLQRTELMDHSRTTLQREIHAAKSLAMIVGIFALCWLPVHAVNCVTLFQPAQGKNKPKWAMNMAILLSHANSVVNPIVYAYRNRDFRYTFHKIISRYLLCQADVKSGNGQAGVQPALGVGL

As for `Cc1cc(-c2sc(NC(=O)N3CCN4C(=O)NC(=O)C4C3)nc2-c2cccc(C#N)c2)cc(C)n1` (stereo not drawn) [Example 6.23, N-[4-(3-Cyanophenyl)-5-(2,6-dimethyl-4-pyridyl)thiazol-2-yl]-1,3-dioxo-5,6,8,8a-tetrahydroimidazo[1,5-a]pyrazine-7-carboxamide], the Ki in assay [1] is 6.5 nM; in assay [2] it was 394 nM; in assay [3] it was 2.99 nM; in assay [4], 92 nM.

Regarding `Cc1cc(-c2sc(NC(=O)N3CC4(COC4)C3)nc2-c2cccc(C#N)c2)cc(CO)n1` [Example 9, N-[4-(3-Cyanophenyl)-5-[2-(hydroxymethyl)-6-methyl-4-pyridyl]thiazol-2-yl]-2-oxa-6-azaspiro[3.3]heptane-6-carboxamide], the Ki was 5.3 nM in assay [1], 2020 nM in assay [2], 0.61 nM in assay [3] and 47 nM in assay [4].

For `COCC1(C#N)CCN(C(=O)Nc2nc(-c3cccc(C#N)c3)c(-c3cc(C)nc(C)c3)s2)CC1` [Example 4.6, 4-Cyano-N-[4-(3-cyanophenyl)-5-(2,6-dimethyl-4-pyridyl)thiazol-2-yl]-4-(methoxymethyl)piperidine-1-carboxamide], the Ki in assay [1] stood at 1.2 nM; in assay [2], 170 nM; in assay [3], 0.18 nM; in assay [4], 41 nM.

On to `CC(=O)N=S1(=O)CCN(C(=O)Nc2nc(-c3cccc(C#N)c3)c(-c3cc(C)nc(C)c3)s2)CC1` [Example 8, 1-Acetylimino-N-[4-(3-cyanophenyl)-5-(2,6-dimethyl-4-pyridyl)thiazol-2-yl]-1-oxo-1,4-thiazinane-4-carboxamide], for which the Ki in assay [1] came out at 1.8 nM; in assay [2] it was 776 nM; in assay [3], 1.83 nM; in assay [4], 59 nM.

For `Cc1cc(-c2sc(NC(=O)N3CCC4(CC3)CN(C)C(=O)N4C)nc2-c2cccc(C#N)c2)cc(C)n1` [Example 6.89, N-[4-(3-Cyanophenyl)-5-(2,6-dimethyl-4-pyridyl)thiazol-2-yl]-1,3-dimethyl-2-oxo-1,3,8-triazaspiro[4.5]decane-8-carboxamide], the Ki stood at 3.5 nM in assay [1], 300 nM in assay [2], 1.01 nM in assay [3] and 326 nM in assay [4].

With `Cc1cc(-c2sc(NC(=O)N3CCC(C(=O)NCCO)CC3)nc2-c2cccc(C#N)c2)cc(C)n1` [Example 6.33, N1-[4-(3-Cyanophenyl)-5-(2,6-dimethyl-4-pyridyl)thiazol-2-yl]-N4-(2-hydroxyethyl)piperidine-1,4-dicarboxamide], the Ki in assay [1] is 3.6 nM; in assay [2] it was 268 nM; in assay [3] it was 3.65 nM; in assay [4], 51 nM.

Take `Cc1cc(-c2sc(NC(=O)N3CC(N4CCOCC4)C3)nc2-c2cccc(C#N)c2)cc(C)n1` [Example 6.112, N-[4-(3-Cyanophenyl)-5-(2,6-dimethyl-4-pyridyl)thiazol-2-yl]-3-morpholino-azetidine-1-carboxamide]: the Ki in assay [1] came out at 23.6 nM; in assay [3], 4.3 nM; in assay [4], 339 nM.

With `Cc1cc(-c2sc(NC(=O)N3C[C@@H](C)N[C@@H](C)C3)nc2-c2cccc(C#N)c2)cc(C)n1` [Example 13, (3S,5R)—N-[4-(3-Cyanophenyl)-5-(2,6-dimethyl-4-pyridyl)thiazol-2-yl]-3,5-dimethyl-piperazine-1-carboxamide], the results for the Ki in assay [1], in assay [3] and in assay [4] were 196 nM, 24.3 nM and 373 nM, respectively.

On to `Cc1cc(-c2sc(NC(=O)N3CCN[C@@H](C#N)C3)nc2-c2cccc(C#N)c2)cc(C)n1` [Example 13.15, (3R)-3-Cyano-N-[4-(3-cyanophenyl)-5-(2,6-dimethyl-4-pyridyl)thiazol-2-yl]piperazine-1-carboxamide], for which the figures for the Ki in assay [1], in assay [3] and in assay [4] were 5.1 nM, 0.33 nM and 41 nM, respectively.

`Cc1cc(-c2sc(NC(=O)N3CCCC3CC(C)(C)O)nc2-c2cccc(C#N)c2)cc(Cl)n1` (stereo not drawn) [Example 3.3]: the values for the Ki in assay [1], in assay [3] and in assay [4] were 3.9 nM, 2.15 nM and 136 nM, respectively.

Regarding `Cc1cc(-c2sc(NC(=O)N3CCOCC3C(C)(C)O)nc2-c2cccc(C#N)c2)cc(Cl)n1` (stereo not drawn) [Example 3.4], the Ki in assay [1] came out at 14.3 nM; in assay [2] it was 2050 nM; in assay [3], 14.3 nM.

As to `Cc1cc(-c2sc(NC(=O)N3C4CCC3CNC4)nc2-c2cccc(C#N)c2)cc(C)n1` [Example 7.4, N-[4-(3-Cyanophenyl)-5-(2,6-dimethyl-4-pyridyl)thiazol-2-yl]-3,8-diazabicyclo[3.2.1]octane-8-carboxamide], the Ki was 13.5 nM in assay [1], 2.73 nM in assay [3] and 58 nM in assay [4].

For the compound `Cc1cc(-c2sc(NC(=O)N3CCNCC3C3CC3)nc2-c2cccc(C#N)c2)cc(C)n1` (stereo not drawn) [Example 14.4, N-[4-(3-Cyanophenyl)-5-(2,6-dimethyl-4-pyridyl)thiazol-2-yl]-2-cyclopropyl-piperazine-1-carboxamide], the Ki in assay [1] turned out to be 37.1 nM; in assay [3], 5.79 nM; in assay [4], 58 nM.

On to `Cc1cc(-c2sc(NC(=O)N3CCN[C@H](C#N)C3)nc2-c2cccc(C#N)c2)cc(C)n1` [Example 13.14, (3S)-3-Cyano-N-[4-(3-cyanophenyl)-5-(2,6-dimethyl-4-pyridyl)thiazol-2-yl]piperazine-1-carboxamide], for which the Ki in assay [1] turned out to be 4.2 nM; in assay [3] it was 0.18 nM; in assay [4] it was 13 nM.

Regarding `Cc1cc(-c2sc(NC(=O)N3CC4(CNCCO4)C3)nc2-c2cccc(C#N)c2)cc(C)n1` [Example 13.1, N-[4-(3-Cyanophenyl)-5-(2,6-dimethyl-4-pyridyl)thiazol-2-yl]-5-oxa-2,8-diazaspiro[3.5]nonane-2-carboxamide], the results for the Ki in assay [1], in assay [3] and in assay [4] were 1.9 nM, 0.64 nM and 164 nM, respectively.

As for `Cc1cc(-c2sc(NC(=O)N3C[C@H](C)NC[C@@H]3C)nc2-c2cccc(C#N)c2)cc(C)n1` [Example 7.7, (2S,5S)—N-[4-(3-Cyanophenyl)-5-(2,6-dimethyl-4-pyridyl)thiazol-2-yl]-2,5-dimethyl-piperazine-1-carboxamide], the Ki in assay [1] was 18.2 nM; in assay [3] it was 5.27 nM; in assay [4] it was 49 nM.

In the case of `Cc1cc(-c2sc(NC(=O)N3CC4(COC4)C3)nc2-c2cccc(C#N)c2)cc(C)[n+]1[O-]` [Example 17, N-[4-(3-Cyanophenyl)-5-(2,6-dimethyl-1-oxido-pyridin-1-ium-4-yl)thiazol-2-yl]-2-oxa-6-azaspiro[3.3]heptane-6-carboxamide], the results for the Ki in assay [1], in assay [3] and in assay [4] were 10 nM, 1.29 nM and 12 nM, respectively.

For the compound `Cc1cc(-c2sc(NC(=O)N3CCNCC3CC3CC3)nc2-c2cccc(C#N)c2)cc(C)n1` (stereo not drawn) [Example 14.5, N-[4-(3-Cyanophenyl)-5-(2,6-dimethyl-4-pyridyl)thiazol-2-yl]-2-(cyclopropylmethyl)piperazine-1-carboxamide], the Ki in assay [1] came to 2.5 nM; in assay [3] it was 0.43 nM; in assay [4], 61 nM.

For the compound `Cc1cc(-c2sc(NC(=O)N3CCN(C(C)(C)CO)CC3)nc2-c2cccc(C#N)c2)cc(C)n1` [Example 4.37, N-[4-(3-Cyanophenyl)-5-(2,6-dimethyl-4-pyridyl)thiazol-2-yl]-4-(2-hydroxy-1,1-dimethyl-ethyl)piperazine-1-carboxamide], the values for the Ki in assay [1], in assay [3] and in assay [4] were 27.1 nM, 4.29 nM and 545 nM, respectively.

Take `Cc1cc(-c2sc(NC(=O)N3CCNCC34CCC4)nc2-c2cccc(C#N)c2)cc(C)n1` [Example 7.10, N-[4-(3-Cyanophenyl)-5-(2,6-dimethyl-4-pyridyl)thiazol-2-yl]-5,8-diazaspiro[3.5]nonane-5-carboxamide]: the Ki came out at 90 nM in assay [1], 29.4 nM in assay [3] and 122 nM in assay [4].

As for `Cc1cc(-c2sc(NC(=O)N3CCNCC3(C)C)nc2-c2cccc(C#N)c2)cc(C)n1` [Example 7.9, N-[4-(3-Cyanophenyl)-5-(2,6-dimethyl-4-pyridyl)thiazol-2-yl]-2,2-dimethyl-piperazine-1-carboxamide], the figures for the Ki in assay [1], in assay [3] and in assay [4] were 44.2 nM, 10.3 nM and 61 nM, respectively.

The Ki is a measure of affinity in units of concentration, obtained from inhibition or displacement.
